# Organism: Rattus norvegicus
# Test: Open TG-GATES - Regimen: Daily Repeat
# Format: toxicity, organism-based, Sprague-Dawley
# Set-up: regimen Daily Repeat, gender Male, age 6 weeks
# Settings: in vivo, po, 20 mg/kg, route gavage, dose level Middle; for APTT / Bas / Eos / Fbg / Hb / Ht / Lym / MCH / MCHC / MCV / Mono / Neu / PT / Plat / RBC / Ret / WBC: tissue Blood; for KIDNEY_L / KIDNEY_R / KIDNEY_TOTAL: tissue Kidney; for LIVER: tissue Liver; for A/G / ALP / ALT / AST / BUN / CRE / Ca / Cl / DBIL / GLC / IP / K / LDH / Na / PL / RALB / TBIL / TC / TG / TP / gamma-GTP: tissue Plasma
structure (smiles),measurement,setting,value
CC(C)NNC(=O)c1ccncc1 [IPRONIAZID],TERMINAL_BW,"72 h, time 3 day",194.3 g
same,APTT,"72 h, time 3 day",22.2 s
same,Bas,"72 h, time 3 day",0%
same,Eos,"72 h, time 3 day",1%
same,Fbg,"72 h, time 3 day",299.2 mg/dL
same,Hb,"72 h, time 3 day",14.1 g/dL
same,Ht,"72 h, time 3 day",40.8%
same,Lym,"72 h, time 3 day",78.8%
same,MCH,"72 h, time 3 day",20.7 pg
same,MCHC,"72 h, time 3 day",34.6%
same,MCV,"72 h, time 3 day",59.9 fL
same,Mono,"72 h, time 3 day",2.4%
same,Neu,"72 h, time 3 day",17.6%
same,PT,"72 h, time 3 day",16.5 s
same,Plat,"72 h, time 3 day",134 x10_4/uL
same,RBC,"72 h, time 3 day",682.6 x10_4/ul
same,Ret,"72 h, time 3 day",5.9%
same,WBC,"72 h, time 3 day",72.4 x10_2/uL
same,KIDNEY_L,"72 h, time 3 day",0.8 g
same,KIDNEY_R,"72 h, time 3 day",0.9 g
same,KIDNEY_TOTAL,"72 h, time 3 day",1.7 g
same,LIVER,"72 h, time 3 day",8.7 g
same,A/G,"72 h, time 3 day",1.2
same,ALP,"72 h, time 3 day",1696.2 IU/L
same,ALT,"72 h, time 3 day",42 IU/L
same,AST,"72 h, time 3 day",74 IU/L
same,BUN,"72 h, time 3 day",19.2 mg/dL
same,CRE,"72 h, time 3 day",0.2 mg/dL
same,Ca,"72 h, time 3 day",10.5 mg/dL
same,Cl,"72 h, time 3 day",108.2 meq/L
same,DBIL,"72 h, time 3 day",0.002 mg/dL
same,GLC,"72 h, time 3 day",175 mg/dL
same,IP,"72 h, time 3 day",7.1 mg/dL
same,K,"72 h, time 3 day",4.4 meq/L
same,LDH,"72 h, time 3 day",262 IU/L
same,Na,"72 h, time 3 day",143.2 meq/L
same,PL,"72 h, time 3 day",150.8 mg/dL
same,RALB,"72 h, time 3 day",3.3 g/dL
same,TBIL,"72 h, time 3 day",0.01 mg/dL
same,TC,"72 h, time 3 day",80.6 mg/dL
same,TG,"72 h, time 3 day",105.2 mg/dL
same,TP,"72 h, time 3 day",5.9 g/dL
same,gamma-GTP,"72 h, time 3 day",1 IU/L
same,TERMINAL_BW,"[…], time 7 day",222.7 g
same,TERMINAL_BW,"[…], time 14 day",259.4 g
same,TERMINAL_BW,"[…], time 28 day",331.2 g
same,APTT,"[…], time 7 day",22.7 s
same,Bas,"[…], time 7 day",0%
same,Eos,"[…], time 7 day",1%
same,Fbg,"[…], time 7 day",311.4 mg/dL
same,Hb,"[…], time 7 day",13.3 g/dL
same,Ht,"[…], time 7 day",37.6%
same,Lym,"[…], time 7 day",82.2%
same,MCH,"[…], time 7 day",20.5 pg
same,MCHC,"[…], time 7 day",35.4%
same,MCV,"[…], time 7 day",57.8 fL
same,Mono,"[…], time 7 day",1.8%
same,Neu,"[…], time 7 day",13.8%
same,PT,"[…], time 7 day",15.4 s
same,Plat,"[…], time 7 day",122.6 x10_4/uL
same,RBC,"[…], time 7 day",651.6 x10_4/ul
same,Ret,"[…], time 7 day",4.2%
same,WBC,"[…], time 7 day",73.7 x10_2/uL
same,APTT,"[…], time 14 day",20.5 s
same,Bas,"[…], time 14 day",0%
same,Eos,"[…], time 14 day",0.6%
same,Fbg,"[…], time 14 day",320.6 mg/dL
same,Hb,"[…], time 14 day",12.5 g/dL
same,Ht,"[…], time 14 day",36.8%
same,Lym,"[…], time 14 day",76%
same,MCH,"[…], time 14 day",19.9 pg
same,MCHC,"[…], time 14 day",34%
same,MCV,"[…], time 14 day",58.7 fL
same,Mono,"[…], time 14 day",2.2%
same,Neu,"[…], time 14 day",20.4%
same,PT,"[…], time 14 day",16.1 s
same,Plat,"[…], time 14 day",122.7 x10_4/uL
same,RBC,"[…], time 14 day",628 x10_4/ul
same,Ret,"[…], time 14 day",8.9%
same,WBC,"[…], time 14 day",105.3 x10_2/uL
same,APTT,"[…], time 28 day",24 s
same,Bas,"[…], time 28 day",0%
same,Eos,"[…], time 28 day",1%
same,Fbg,"[…], time 28 day",313.2 mg/dL
same,Hb,"[…], time 28 day",13.5 g/dL
same,Ht,"[…], time 28 day",39%
same,Lym,"[…], time 28 day",80.8%
same,MCH,"[…], time 28 day",20.6 pg
same,MCHC,"[…], time 28 day",34.5%
same,MCV,"[…], time 28 day",59.6 fL
same,Mono,"[…], time 28 day",1.2%
same,Neu,"[…], time 28 day",16.6%
same,PT,"[…], time 28 day",16.3 s
same,Plat,"[…], time 28 day",108.1 x10_4/uL
same,RBC,"[…], time 28 day",654.8 x10_4/ul
same,Ret,"[…], time 28 day",6.7%
same,WBC,"[…], time 28 day",133.5 x10_2/uL
same,KIDNEY_L,"[…], time 7 day",0.9 g
same,KIDNEY_R,"[…], time 7 day",0.9 g
same,KIDNEY_TOTAL,"[…], time 7 day",1.8 g
same,KIDNEY_L,"[…], time 14 day",1 g
same,KIDNEY_R,"[…], time 14 day",1 g
same,KIDNEY_TOTAL,"[…], time 14 day",2.1 g
same,KIDNEY_L,"[…], time 28 day",1.2 g
same,KIDNEY_R,"[…], time 28 day",1.2 g
same,KIDNEY_TOTAL,"[…], time 28 day",2.4 g
same,LIVER,"[…], time 7 day",9.4 g
same,LIVER,"[…], time 14 day",10.8 g
same,LIVER,"[…], time 28 day",12.6 g
same,A/G,"[…], time 7 day",1.2
same,ALP,"[…], time 7 day",1298.6 IU/L
same,ALT,"[…], time 7 day",36.2 IU/L
same,AST,"[…], time 7 day",75 IU/L
same,BUN,"[…], time 7 day",18.6 mg/dL
same,CRE,"[…], time 7 day",0.2 mg/dL
same,Ca,"[…], time 7 day",10.4 mg/dL
same,Cl,"[…], time 7 day",107.6 meq/L
same,DBIL,"[…], time 7 day",0.004 mg/dL
same,GLC,"[…], time 7 day",179.4 mg/dL
same,IP,"[…], time 7 day",6.6 mg/dL
same,K,"[…], time 7 day",4.2 meq/L
same,LDH,"[…], time 7 day",206.4 IU/L
same,Na,"[…], time 7 day",142.2 meq/L
same,PL,"[…], time 7 day",154.8 mg/dL
same,RALB,"[…], time 7 day",3.1 g/dL
same,TBIL,"[…], time 7 day",0.006 mg/dL
same,TC,"[…], time 7 day",88.6 mg/dL
same,TG,"[…], time 7 day",89 mg/dL
same,TP,"[…], time 7 day",5.7 g/dL
same,gamma-GTP,"[…], time 7 day",1.4 IU/L
same,A/G,"[…], time 14 day",1.1
same,ALP,"[…], time 14 day",1067 IU/L
same,ALT,"[…], time 14 day",40.2 IU/L
same,AST,"[…], time 14 day",70.8 IU/L
same,BUN,"[…], time 14 day",18.2 mg/dL
same,CRE,"[…], time 14 day",0.2 mg/dL
same,Ca,"[…], time 14 day",10.4 mg/dL
same,Cl,"[…], time 14 day",106.6 meq/L
same,DBIL,"[…], time 14 day",0.004 mg/dL
same,GLC,"[…], time 14 day",182.6 mg/dL
same,IP,"[…], time 14 day",6.7 mg/dL
same,K,"[…], time 14 day",4.3 meq/L
same,LDH,"[…], time 14 day",154.6 IU/L
same,Na,"[…], time 14 day",142.2 meq/L
same,PL,"[…], time 14 day",153.8 mg/dL
same,RALB,"[…], time 14 day",3 g/dL
same,TBIL,"[…], time 14 day",0.026 mg/dL
same,TC,"[…], time 14 day",85 mg/dL
same,TG,"[…], time 14 day",118.6 mg/dL
same,TP,"[…], time 14 day",5.7 g/dL
same,gamma-GTP,"[…], time 14 day",1.8 IU/L
same,A/G,"[…], time 28 day",1.1
same,ALP,"[…], time 28 day",1143.8 IU/L
same,ALT,"[…], time 28 day",37.2 IU/L
same,AST,"[…], time 28 day",68 IU/L
same,BUN,"[…], time 28 day",17.4 mg/dL
same,CRE,"[…], time 28 day",0.2 mg/dL
same,Ca,"[…], time 28 day",10.4 mg/dL
same,Cl,"[…], time 28 day",106.2 meq/L
same,DBIL,"[…], time 28 day",0 mg/dL
same,GLC,"[…], time 28 day",184.2 mg/dL
same,IP,"[…], time 28 day",6.9 mg/dL
same,K,"[…], time 28 day",4.2 meq/L
same,LDH,"[…], time 28 day",157.6 IU/L
same,Na,"[…], time 28 day",141.8 meq/L
same,PL,"[…], time 28 day",138.4 mg/dL
same,RALB,"[…], time 28 day",3.1 g/dL
same,TBIL,"[…], time 28 day",0.038 mg/dL
same,TC,"[…], time 28 day",68.4 mg/dL
same,TG,"[…], time 28 day",122.6 mg/dL
same,TP,"[…], time 28 day",5.9 g/dL
same,gamma-GTP,"[…], time 28 day",2.2 IU/L

# From ChEMBL document CHEMBL3885861, “Open TG-GATES”
